Reference: publication PMC7179022, “Carvacrol Prodrugs with Antimicrobial Activity Loaded on Clay Nanocomposites” (Materials, 2020)
Converted amounts (≈) assume the structure as drawn.

Assays:
[1] = In vitro release studies of WSCP1-3 loaded-VHS in a dissolution tester; assay type: physicochemical; details: 37 °C, from prodrug-VHS nanohybrid
Description: Release studies were conducted in a dissolution tester (Sotax AT7, SOTAX Group, Aesch, Switzerland). […] During the test, temperature was maintained constant at 37 °C and agitation was achieved using a paddle system set to 100 rpm. At predetermined time intervals, 5 mL of dissolution medium was withdrawn, filtered with 0.45 μm Millipore^© membranes, and replaced with an equal volume of the corresponding fresh dissolution medium. […] Va is the volume picked up; and Ci is the concentration of drug at time i.

[2] = Chemical conversion of carvacrol prodrugs to carvacrol in water and buffer solutions (HPLC); assay type: physicochemical; details: 37 °C, 1 mg/mL, mean (±SD) of three experiments
Description: We removed 400 μL samples at various time intervals and drug concentrations were analyzed by high performance liquid chromatography (HPLC) using an Agilent 1260 Infinity II HPLC (Agilent, Santa Clara, CA, USA) consisting of quaternary pump, autosampler, column oven, and UV-Vis diode-array detector. Samples were run in an Agilent Poroshell 120 EC-C18 column (4 μm, 4.60 × 150 mm; Agilent, Santa Clara, CA, USA) maintained at 25 °C. The mobile phase consisted of a mixture 50:50 v/v H2O MilliQ (Merck KGaA, Darmstadt, Germany) and CH3CN with 0.1% trifluoracetic acid (TFA) flushing at an isocratic flow rate of 1 mL/min. The detector was set at a wavelength of 270 nm. Data were processed using LC Open LAB HPLC 1260 software (Agilent, Santa Clara, CA, USA). Results are reported as relative difference (RD%) of prodrugs conversion, calculated with Equation (1):(1) RD%=Ci− Cf/Ci ×100 where Ci is the prodrug concentration at zero time point and Cf is the prodrug concentration at the end of incubation.

[3] = design: method as in PMID 16869897, PMID 31284397; details: cited from earlier work
[4] = cited from earlier work
[5] = acid pH (0.1 M HCl, pH 1.2), 120 min
[6] = pH 6.8 phosphate buffer, 240 min

| amount of prodrug released from VHS [1, 5] | amount of prodrug released from VHS [1, 6] | pseudo-first-order dissociation rate constant Kobs ([2]; pH 6.8 buffer) | pseudo-first-order dissociation rate constant Kobs ([2]; pH 7.4 buffer) | Structure (SMILES) | octanol/water partition coefficient (logP o/w) [3] | water solubility [4] |
| --- | --- | --- | --- | --- | --- | --- |
| 38% | 65% | 0.2982 (±0.0106) h^−1 |  | Cc1ccc(C(C)C)cc1OC(=O)CN [WSCP1] |  |  |
| 54% | 78% | 0.9027 (±0.0042) h^−1 | 0.7878 (±0.0629) h^−1 | Cc1ccc(C(C)C)cc1OC(=O)[C@@H](C)N [WSCP2] |  |  |
| 45% | 44% | 0.0381 (±0.0002) h^−1 | 0.0420 (±0.0006) h^−1 | Cc1ccc(C(C)C)cc1OC(=O)CCN [WSCP3] |  |  |
|  |  |  |  | Cc1ccc(C(C)C)cc1O [carvacrol, 2-methyl-5-isopropylphenol] | 3.64 | 110 µg/mL (≈ 732 µM) |
